Several values for one entry are separate records, joined by “and”; a condition that tells them apart may be missing. Equal entries are not always repeated. Inconclusive results and toxic doses are left out. Rule for the calls: active = survival T/C of 150% or more; inactive = T/C below 125% in these data.
Tested on: P388 leukemia ip, CD2F1 mice, survival T/C
Assay: NCI In Vivo Anticancer Drug Screen. Data for tumor model P388 Leukemia (intraperitoneal) in CD2F1 (CDF1) mice
Conditions: endpoint: median survival time, higher = longer survival
Description: The antitumor activity of compounds was measured in mice bearing transplantable tumors. Survival or tumor size were measured and the results are expressed as the measurement made in the treated group (T) divided by the measurement made in the vehicle treated control group (C). The tumor model used in this assay is P388 Leukemia (intraperitoneal) in CD2F1 (CDF1) mice

[1] = dose: 50.0 mg/kg/injection, schedule: Q01DX005 (ip), vehicle: Klucel (hydroxypropylcellulose) (HPC)
[2] = dose: 60.0 mg/kg/injection, schedule: Q01DX005 (ip), vehicle: saline with Tween-80
[3] = dose: 120.0 mg/kg/injection, schedule: Q01DX005 (ip), vehicle: saline with Tween-80
[4] = dose: 240.0 mg/kg/injection, schedule: Q01DX005 (ip), vehicle: saline with Tween-80
[5] = dose: 100.0 mg/kg/injection, schedule: Q04DX002 (ip), vehicle: saline with Tween-80
[6] = dose: 50.0 mg/kg/injection, schedule: Q01DX009 (ip), vehicle: Klucel (hydroxypropylcellulose) (HPC)
[7] = dose: 50.0 mg/kg/injection, schedule: Q01DX005 (ip), vehicle: saline with Tween-80
[8] = dose: 50.0 mg/kg/injection, schedule: Q01DX009 (ip), vehicle: saline with Tween-80
[9] = dose: 100.0 mg/kg/injection, schedule: Q01DX009 (ip), vehicle: saline with Tween-80
[10] = dose: 200.0 mg/kg/injection, schedule: Q01DX009 (ip), vehicle: saline with Tween-80

Measured: T/C

CCCCc1ccc2nccc(N/N=C/c3ccc(OC)c4ccccc34)c2c1
inactive: dose: 3.12 mg/kg/injection, schedule: Q01DX005 (ip), vehicle: Klucel (hydroxypropylcellulose) (HPC) 100 % of control | dose: 6.25 mg/kg/injection, schedule: Q01DX005 (ip), vehicle: Klucel (hydroxypropylcellulose) (HPC) 100 % of control | dose: 12.5 mg/kg/injection, schedule: Q01DX005 (ip), vehicle: Klucel (hydroxypropylcellulose) (HPC) 93 % of control and 94 % of control | [1] 87 % of control

O=C1c2ccccc2C(O)N1CCc1c[nH]c2ccccc12 (configuration not stated)
inactive: [1] 93 % of control | dose: 100.0 mg/kg/injection, schedule: Q01DX005 (ip), vehicle: Klucel (hydroxypropylcellulose) (HPC) 95 % of control | dose: 200.0 mg/kg/injection, schedule: Q01DX005 (ip), vehicle: Klucel (hydroxypropylcellulose) (HPC) 91 % of control

[Se]=P(N1CCOCC1)(N1CCOCC1)N1CCOCC1
inactive: dose: 13.75 mg/kg/injection, schedule: Q01DX001 (ip), vehicle: Klucel (hydroxypropylcellulose) (HPC) 101 % of control | dose: 27.5 mg/kg/injection, schedule: Q01DX001 (ip), vehicle: Klucel (hydroxypropylcellulose) (HPC) 104 % of control

CCOC(=O)CNC(=O)OCCS(=O)CCOC(=O)NCC(=O)OCC
inactive: dose: 100.0 mg/kg/injection, schedule: Q01DX001 (ip), vehicle: saline 98 % of control | dose: 200.0 mg/kg/injection, schedule: Q01DX001 (ip), vehicle: saline 93 % of control | dose: 400.0 mg/kg/injection, schedule: Q01DX001 (ip), vehicle: saline 101 % of control

Cc1cc(N=[N+]=[N-])c2cc(C3CCCCC3)ccc2n1
inactive: [2] 94 % of control | [3] 93 % of control | [4] 92 % of control

CC(=O)OC1CCC2(C)CCC3C(OC(=O)C3(C)[Se]c3ccccc3)C2C1C (configuration not stated)
inactive: [5] 91 % of control

NNc1nn2cnnc2c2ccccc12
inactive: dose: 6.25 mg/kg/injection, schedule: Q04DX002 (ip), vehicle: saline 100 % of control and 96 % of control | dose: 12.5 mg/kg/injection, schedule: Q04DX002 (ip), vehicle: saline 98 % of control and 99 % of control and 96 % of control | dose: 25.0 mg/kg/injection, schedule: Q04DX002 (ip), vehicle: saline 100 % of control and 122 % of control and 97 % of control | dose: 50.0 mg/kg/injection, schedule: Q04DX002 (ip), vehicle: saline 101 % of control and 104 % of control and 94 % of control | dose: 400.0 mg/kg/injection, schedule: Q04DX002 (ip), vehicle: saline 88 % of control

NNC(=O)N/N=C/c1ccccc1Cl
inactive: dose: 25.0 mg/kg/injection, schedule: Q01DX005 (ip), vehicle: Klucel (hydroxypropylcellulose) (HPC) 96 % of control | [1] 112 % of control

COC1(OC)C2(Cl)C(Cl)=C(Cl)C1(Cl)C1C3CC=CC(CC12)S3 (configuration not stated)
inactive: [5] 102 % of control | dose: 200.0 mg/kg/injection, schedule: Q04DX002 (ip), vehicle: saline with Tween-80 100 % of control | dose: 400.0 mg/kg/injection, schedule: Q04DX002 (ip), vehicle: saline with Tween-80 99 % of control

COc1ccc(C(=O)/C=C/c2ccc3cc(OC)c(OC)cc3c2)cc1OC
inactive: dose: 3.13 mg/kg/injection, schedule: Q01DX009 (ip), vehicle: Klucel (hydroxypropylcellulose) (HPC) 103 % of control | dose: 6.25 mg/kg/injection, schedule: Q01DX009 (ip), vehicle: Klucel (hydroxypropylcellulose) (HPC) 100 % of control | dose: 12.5 mg/kg/injection, schedule: Q01DX009 (ip), vehicle: Klucel (hydroxypropylcellulose) (HPC) 106 % of control | dose: 25.0 mg/kg/injection, schedule: Q01DX009 (ip), vehicle: Klucel (hydroxypropylcellulose) (HPC) 106 % of control | [6] 98 % of control

COc1cc(C(Nc2ncccn2)c2cc3c(cc2O)OCO3)cc(OC)c1O (configuration not stated)
inactive: [2] 105 % of control | [3] 90 % of control | [4] 90 % of control

O=c1c2[nH]c3ccccc3sc=2c(=O)n1-c1ccc(Cl)cc1
inactive: [2] 103 % of control | [3] 98 % of control | [4] 94 % of control

COC(=O)C(=O)C1(c2ccccc2)C(=O)C(c2ccccc2)=CC1O (configuration not stated)
inactive: dose: 60.0 mg/kg/injection, schedule: Q01DX005 (ip), vehicle: saline + Tween-80 + alcohol 104 % of control | dose: 120.0 mg/kg/injection, schedule: Q01DX005 (ip), vehicle: saline + Tween-80 + alcohol 101 % of control | dose: 240.0 mg/kg/injection, schedule: Q01DX005 (ip), vehicle: saline + Tween-80 + alcohol 100 % of control

CC1CC2OC(/C=C/C=C/C=C/C=C\C=C\C(O)=C3/C(=O)C(C(C)C)N(C)C3=O)C(O)C2O1 (configuration not stated)
inactive: dose: 310.0 micrograms/kg/injection, schedule: Q01DX005 (ip), vehicle: saline with Tween-80 99 % of control | dose: 625.0 micrograms/kg/injection, schedule: Q01DX005 (ip), vehicle: saline with Tween-80 94 % of control | dose: 1250.0 micrograms/kg/injection, schedule: Q01DX005 (ip), vehicle: saline with Tween-80 101 % of control | dose: 2500.0 micrograms/kg/injection, schedule: Q01DX005 (ip), vehicle: saline with Tween-80 99 % of control | dose: 5000.0 micrograms/kg/injection, schedule: Q01DX005 (ip), vehicle: saline with Tween-80 99 % of control

O=NN(Cc1ccc(Cl)cc1)NC1=NCCN1
inactive: [6] 98 % of control | dose: 100.0 mg/kg/injection, schedule: Q01DX009 (ip), vehicle: Klucel (hydroxypropylcellulose) (HPC) 99 % of control | dose: 200.0 mg/kg/injection, schedule: Q01DX009 (ip), vehicle: Klucel (hydroxypropylcellulose) (HPC) 105 % of control

S=c1n(-c2ccc(Cl)cc2)c2nc3ccccc3nc(/c2=N\Nc2ccccc2)n1-c1ccccn1
inactive: [7] 91 % of control | dose: 100.0 mg/kg/injection, schedule: Q01DX005 (ip), vehicle: saline with Tween-80 100 % of control

CC(C)CC(=O)OCC1=CCN2CC[C@@H](O)[C@@H]12
inactive: dose: 15.0 mg/kg/injection, schedule: Q01DX009 (ip), vehicle: saline + alcohol 105 % of control | dose: 30.0 mg/kg/injection, schedule: Q01DX009 (ip), vehicle: saline + alcohol 109 % of control | dose: 60.0 mg/kg/injection, schedule: Q01DX009 (ip), vehicle: saline + alcohol 105 % of control | dose: 120.0 mg/kg/injection, schedule: Q01DX009 (ip), vehicle: saline + alcohol 108 % of control | dose: 240.0 mg/kg/injection, schedule: Q01DX009 (ip), vehicle: saline + alcohol 108 % of control | dose: 480.0 mg/kg/injection, schedule: Q01DX009 (ip), vehicle: saline + alcohol 114 % of control

CC(=O)OC1CC2CCC1(/C=C/C(=O)c1ccccc1)C2 (configuration not stated)
inactive: [8] 100 % of control | [9] 100 % of control | [10] 113 % of control

C=CCC(C(=O)OC)c1ccccc1 (configuration not stated)
inactive: dose: 0.4 mg/kg/injection, schedule: Q01DX009 (ip), vehicle: saline with Tween-80 99 % of control | dose: 0.8 mg/kg/injection, schedule: Q01DX009 (ip), vehicle: saline with Tween-80 98 % of control | dose: 1.6 mg/kg/injection, schedule: Q01DX009 (ip), vehicle: saline with Tween-80 104 % of control

CS(=O)(=O)C12CCCN1C(=O)C1CCCN1C2=O (configuration not stated)
inactive: dose: 50.0 mg/kg/injection, schedule: Q01DX009 (ip), vehicle: saline 99 % of control | dose: 100.0 mg/kg/injection, schedule: Q01DX009 (ip), vehicle: saline 102 % of control | dose: 200.0 mg/kg/injection, schedule: Q01DX009 (ip), vehicle: saline 90 % of control

O=C1COC(c2ccccc2O)=NN1CCN1CCOCC1
inactive: [8] 103 % of control | [9] 103 % of control | [10] 94 % of control

Cc1cnc(C)n2cnnc12
inactive: dose: 100.0 mg/kg/injection, schedule: Q04DX003 (ip), vehicle: saline 93 % of control | dose: 200.0 mg/kg/injection, schedule: Q04DX003 (ip), vehicle: saline 95 % of control | dose: 400.0 mg/kg/injection, schedule: Q04DX003 (ip), vehicle: saline 98 % of control

COc1cc2c(cc1O)C(O)CCCC2 (configuration not stated)
inactive: [8] 107 % of control | [9] 108 % of control | [10] 110 % of control

CCCNP1(NCCC)=NP(NCCC)(NCCC)=NP(NCCC)(NCCC)=NP(NCCC)(NCCC)=N1
inactive: dose: 12.5 mg/kg/injection, schedule: Q01DX005 (ip), vehicle: saline with Tween-80 104 % of control | dose: 25.0 mg/kg/injection, schedule: Q01DX005 (ip), vehicle: saline with Tween-80 99 % of control | [7] 100 % of control and 104 % of control

— PubChem BioAssay AID330 (DTP/NCI, 2004)
